Test results from patent US20110053900A1, “PROGESTERONE ANTAGONISTS SUCH AS CDB-4124 IN THE TREATMENT OF BREAST CANCER” (Repros Therapeutics inc, priority 2008, published 2011).

Columns and labels:
glucocorticoid receptor = molecular target: T1, glucocorticoid receptor (Homo sapiens, UniProt P04150); conditions: compared with parent CDB-4124; cited from earlier work
T1 sequence (P04150 1-777): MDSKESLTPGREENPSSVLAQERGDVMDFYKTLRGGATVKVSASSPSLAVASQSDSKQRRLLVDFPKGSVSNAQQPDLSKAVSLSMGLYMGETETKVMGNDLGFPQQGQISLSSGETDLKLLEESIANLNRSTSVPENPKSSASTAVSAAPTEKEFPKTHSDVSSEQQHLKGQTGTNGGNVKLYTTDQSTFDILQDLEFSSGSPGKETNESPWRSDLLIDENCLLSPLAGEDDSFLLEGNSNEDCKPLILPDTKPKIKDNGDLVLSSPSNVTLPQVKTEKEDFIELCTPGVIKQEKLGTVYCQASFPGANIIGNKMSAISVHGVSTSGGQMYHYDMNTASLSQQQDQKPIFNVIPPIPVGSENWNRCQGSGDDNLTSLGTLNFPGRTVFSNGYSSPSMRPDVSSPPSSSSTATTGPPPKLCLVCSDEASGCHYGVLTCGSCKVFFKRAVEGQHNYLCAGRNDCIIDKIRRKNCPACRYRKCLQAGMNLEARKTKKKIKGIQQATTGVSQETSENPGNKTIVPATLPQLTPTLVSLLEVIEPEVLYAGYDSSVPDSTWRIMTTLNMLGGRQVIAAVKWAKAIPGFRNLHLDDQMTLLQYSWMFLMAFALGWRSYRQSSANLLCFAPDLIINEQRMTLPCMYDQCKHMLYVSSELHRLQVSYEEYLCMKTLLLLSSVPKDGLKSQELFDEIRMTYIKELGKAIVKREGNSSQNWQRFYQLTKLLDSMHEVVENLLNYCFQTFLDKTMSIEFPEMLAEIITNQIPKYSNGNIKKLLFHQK

[1] = test system: rabbit progesterone receptor (rbPR) and glucocorticoid receptor (rbGR); experiment: Receptor-binding assays, ratio of relative binding affinities rbPR/rbGR; conditions: RBA = EC50 of standard/EC50 of test compound x 100
Description: (§1) Certain antiprogestins were tested in receptor-binding assays for their ability to bind rabbit progesterone receptor (rbPR) and glucocorticoid receptor (rbGR). Briefly, cytosol containing PR or GR were prepared in TEGMD buffer (10 mM Tris, pH 7.2, 1.5 mM EDTA, 0.2 mM sodium molybdate, 10% glycerol, 1 mM DTT) from uterus or thymus, respectively, of estradiol-primed immature rabbits. For PR binding, the cytosol was incubated with 6 nM 1,2-[^3H]progesterone (50.0 Ci/mmole) and competitors were added at concentrations from 2 to 100 nM. For binding to GR, the cytosol was incubated with 6 nM 6,7-[^3H]-dexamethasone (40 Ci/mmol) and test compounds were added at concentrations from 20 to 100 nM. After overnight incubation at 4° C., bound and unbound [^3H] steroids were separated by addition of dextran-coated charcoal and centrifugation at 2100×g for 15 min at 4
C. Supernatants containing the [3H]-steroid receptor complexes were decanted into vials containing 4 ml Optifluor (Packard Instrument Co.), vortexed, equilibrated in a liquid scintillation counter for 30 minutes and then counted for 2 minutes. The ECso (Effective Concentration) for each standard curve and each of the compound curves was determined by entering the counting data into a four parameter sigmoidal computer program (RiaSmart® Immunoassay Data Reduction Program, Packard Instrument Co., Meriden, Conn.). Relative binding affinity (RBA) for each compound was calculated using the following equation: EC50 of standard/EC50 of test compound×100. The standards for the PR and GR assays were unlabeled progesterone and dexamethasone, respectively. The results of these experiments are summarized in Table 1, as a ratio of the relative binding affinities of each compound for the rbPR and rbGR receptors (rbPR/rbGR).

[2] = molecular target: T2, glucocorticoid receptor (rbGR) (Oryctolagus cuniculus, UniProt P59667); experiment: Glucocorticoid receptor binding; design: species or system rabbit
T2 construct: cytosol containing PR or GR were prepared in TEGMD buffer; from tissue; host or cells: thymus of estradiol-primed immature rabbits (cytosol)
T2 sequence (P59667 1-772): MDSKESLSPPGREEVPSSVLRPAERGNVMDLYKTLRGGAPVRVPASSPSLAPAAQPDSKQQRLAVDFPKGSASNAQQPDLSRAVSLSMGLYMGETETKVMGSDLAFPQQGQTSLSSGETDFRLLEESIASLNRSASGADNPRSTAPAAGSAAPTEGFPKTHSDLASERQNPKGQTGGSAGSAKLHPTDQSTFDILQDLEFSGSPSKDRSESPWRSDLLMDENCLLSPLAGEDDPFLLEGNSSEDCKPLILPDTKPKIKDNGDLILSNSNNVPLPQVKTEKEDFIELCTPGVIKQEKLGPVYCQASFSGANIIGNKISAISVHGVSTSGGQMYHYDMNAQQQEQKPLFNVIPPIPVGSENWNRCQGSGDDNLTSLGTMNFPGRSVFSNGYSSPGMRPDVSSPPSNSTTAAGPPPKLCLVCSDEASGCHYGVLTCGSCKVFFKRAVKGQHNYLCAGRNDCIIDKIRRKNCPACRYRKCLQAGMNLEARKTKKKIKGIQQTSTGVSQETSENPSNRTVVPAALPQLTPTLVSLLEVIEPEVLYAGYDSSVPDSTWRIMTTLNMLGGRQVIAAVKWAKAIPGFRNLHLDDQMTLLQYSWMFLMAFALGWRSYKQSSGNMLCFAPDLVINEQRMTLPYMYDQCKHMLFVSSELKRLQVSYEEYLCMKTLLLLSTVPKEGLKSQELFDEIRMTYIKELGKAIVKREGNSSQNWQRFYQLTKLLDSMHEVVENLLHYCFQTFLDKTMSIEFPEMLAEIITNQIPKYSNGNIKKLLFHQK
Description: as §1, with “Briefly, cytosol containing PR or GR were prepared in TEGMD buffer (10 mM Tris, pH 7.2, 1.5 mM EDTA, 0.2 mM sodium molybdate, 10% glycerol, 1 mM DTT) from uterus or thymus, respectively, of estradiol-primed immature rabbits.” left out
C. Supernatants containing the [3H]-steroid receptor complexes were decanted into vials containing 4 ml Optifluor (Packard Instrument Co.), vortexed, equilibrated in a liquid scintillation counter for 30 minutes and then counted for 2 minutes. […] The standards for the PR and GR assays were unlabeled progesterone and dexamethasone, respectively.

rabbit uterus = experiment: Anti-McGinty and anti-Clauberg assays; assay type: in vivo; conditions: in comparison to RU 486 and CDB-2914
From the text: Also given in the Table are the relative biological activities of the same compounds in the rabbit uterus by the anti-McGinty and anti-Clauberg assays. Compound CDB-2914 (listed at the end of the Table) was used as the control or reference compound (rabbit Biological Activity=1.00) for these experiments because results of experiments using CDB-2914 have been published before (Hild-Petito et al., 1996; Passaro et al., 1997; Reel et al., 1998; Lamer et al., 2000). For the anti-McGinty test, immature female rabbits received a subcutaneous injection of 5 μg estradiol in 10% ethanol/sesame oil daily for 6 consecutive days. On day 7, animals underwent sterile abdominal surgery to ligate a 3-4 cm segment of both uterine horns. The test compound in appropriate solvent was injected intraluminally into the ligated segment of one uterine horn and vehicle alone into the other. A stimulating dose of progesterone (267 μg/day) was administered subcutaneously to each rabbit daily for the next three days to induce endometrial proliferation. All animals were sacrificed at day 10 for removal of the uterus where a segment central to the ligatures was removed and fixed in 10% neutral buffered formalin and submitted for histological processing. Five micron sections stained with hematoxylin and cosin were evaluated microscopically for the degree of endometrial glandular proliferation. The percent inhibition of endometrial proliferation for each rabbit was calculated and the mean of the group of five animals recorded. For the Anti-Clauberg test, immature female rabbits received a subcutaneous injection of 5 μg estradiol in 10% ethanol/sesame oil daily for 6 consecutive days. On day 7, animals received progesterone by subcutaneous injection (160 μg/day) and the experimental compound in appropriate vehicle orally or subcutaneously for five consecutive days. One group of rabbits received progesterone only. Twenty-four hours after the last dose, all animals were sacrificed for removal of the uterus which was cleaned of all fat and connective tissue, weighed to the nearest 0.2 mg and placed in 10% neutral buffered formalin for subsequent histological processing. Five micron sections stained with hematoxylin and eosin were evaluated microscopically for the degree of endometrial glandular proliferation. The percent inhibition of endometrial proliferation at each dose level of the test compound was derived by comparison with progesterone-stimulated animals alone. The data presented in Table 1 (rabbit Biol. Act.) reflects the average of the results obtained for each compound by the anti-McGinty and anti-Clauberg assays relative to CDB-2914.

[3] = Estrogenic, androgenic, anti-estrogenic and anti-androgenic activities
[4] = Estrogen levels in human females during administration; assay type: in vivo; conditions: administration periods of at least six months
[5] = Serum progesterone by ELISA; assay type: in vivo, rat
Description: (§2) The animals were assessed three times for their levels of progesterone: initially, when they were about to go on treatment; a second time after 21 days of treatment; and finally after treatment at sacrifice which was 2-4 days after the last s.c. injection. All blood samples were taken by heart puncture; serum was prepared and held frozen at −40° C. The levels of the steroid hormones progesterone, cortisol, and corticosterone were determined by ELISA.
(§3) The concentrations of steroid hormones were determined three times during the study: before the beginning of treatments, after 21 days of treatment and finally after treatment at sacrifice which was 2-4 days after the last s.c. injection. All samples were taken by heart puncture. Serum was obtained and held frozen at −40° C. The levels of steroid hormones were determined by ELISA.

Serum cortisol by ELISA = assay type: in vivo, rat; conditions: 10 mg/kg, 21 days of dosing
Description: as §2, §3

SMILES	anti-glucocorticoid activity (in words) (glucocorticoid receptor)	rbPR/rbGR (ratio of the relative binding affinities for rbPR and rbGR) [1]	anti-glucocorticoid receptor activity / glucocorticoid receptor binding (in words) [2]	antiprogestin activity in the rabbit uterus (in words) (rabbit uterus)	estrogenic, androgenic, anti-estrogenic, and anti-androgenic activities (in words) [3]	estrogen levels in human females (in words) [4]	serum progesterone versus before treatment (in words) ([5]; 10 mg/kg)	Serum Progesterone, Before TX (mean) ([5]; 10 mg/kg group, before treatment) [ng/mL]	Serum Progesterone, During TX (mean) ([5]; 10 mg/kg, after 21 days of treatment) [ng/mL]	Serum Progesterone, After TX (mean) ([5]; 10 mg/kg, at sacrifice 2-4 days after the last s.c. injection) [ng/mL]	serum cortisol versus control group (in words) (Serum cortisol by ELISA)
CNc1ccc([C@H]2C[C@@]3(C)[C@@H](CC[C@]3(OC(C)=O)C(=O)COC)[C@@H]3CCC4=CC(=O)CCC4=C32)cc1 [CDB-4453, 21-methoxy-17α-acetoxy-11β-(4-N-methylaminophenyl)-19-norpregna-4,9-diene-3,20-dione]	even lower anti-glucocorticoid activity than its parent	–	–	–	–	–	–	–	–	–	–
CC(=O)OCC(=O)[C@@]1(OC(C)=O)CCC2C3CCC4=CC(=O)CCC4=C3C(c3ccc(N(C)C)cc3)C[C@@]21C (stereo partly drawn) [CDB-4059, 21-acetoxy-17α-acetoxy-11β-(4 N,N-dimethylaminophenyl)-19-norpregna-4,9-diene-3,20-dione]	–	1.89	minimal anti-glucocorticoid receptor activity	strong antiprogestin activity	lack estrogenic, androgenic, anti-estrogenic, and anti-androgenic activities	maintain estrogen levels in the normal range	did not raise serum progesterone levels	57	58	47	significantly higher levels of serum cortisol
